The values below come from patent US20090093069A1, “Topiramate Immunoassays” (ARK Diagnostics, Inc., priority 2007, published 2009).

The subject of one test is rabbit polyclonal antibody #11341. As to the kind of experiment: Coadministered drug interference study in the homogeneous enzyme immunoassay (HITACHI 917). Type of test: binding. As to conditions: 5.0 μg/mL drug added to human serum containing 20.0 μg/mL topiramate. Here is the method: The antibody was added into the antibody diluent to prepare the antibody reagent. The antibody reagent consists of antibody as prepared above, buffer, stabilizers, preservatives, and the substrates for the enzyme conjugate NAD and glucose 6 phosphate. […] The enzyme conjugate reagent consists of the conjugate, buffer, stabilizers and preservatives.
(§1) The ARK Assay for topiramate is conducted using a liquid, ready-to-use, two-reagent kit. […] Topiramate containing sample is incubated with antibody reagent followed by the addition of the enzyme conjugate reagent. The enzyme conjugate activity decreases upon binding to the antibody. The enzyme conjugate, which is not bound to the antibody, catalyzes the oxidation of glucose 6-phosphate (G6P). The oxidation of G6P is coupled with the reduction of NAD^+ to NADH, which can be measured at 340 nm. The change in the absorbance at 340 nm can be measured spectrophotometrically. The topiramate concentration in a specimen can be measured in terms of G6PDH activity. The increase in the rate at 340 nm is due to the formation of NADH and is proportional to the enzyme conjugate activity. […] The assay rate increases with increasing the concentration of drug in the sample.
A high concentration of each coadministered drug was spiked into normal human serum with containing topiramate 20 μg/mL and assayed. Each sample was assayed in duplicate. […] The percentage concentration above 20.0 μg/mL of topiramate was calculated for each coadministered drug tested.
With `NC(N)=Nc1nc(CSCCC(N)=NS(N)(=O)=O)cs1` [Famotidine], the “% Interference [(20.0 μg/mL Topiramate) − (Result)] ÷ (drug conc.) × 100” value (“% Interference” for short) is given as −0.2%.

The same test, now with this note: 10.0 μg/mL drug added to human serum containing 20.0 μg/mL topiramate.
Consider `NS(=O)(=O)c1cc(C(=O)O)c(NCc2ccco2)cc1Cl` [Furosemide], for which the “% Interference” value is reported as 0.10%.

The same test, now with this note: 50.0 μg/mL drug added to human serum containing 20.0 μg/mL topiramate.
As to `CC(=O)Nc1nnc(S(N)(=O)=O)s1` [Acetazolamide], the “% Interference” value is on record as 0.56%.

On to `CC(=O)Nc1ccc(O)cc1` [Acetominophen], for which the “% Interference” value is recorded as −0.38%. For `CC(C)NCC(O)COc1ccc(CC(N)=O)cc1` (stereo not drawn) [Atenolol], the “% Interference” value is reported as −0.40%. Take `O=C1CN=C(c2ccccc2Cl)c2cc([N+](=O)[O-])ccc2N1` [Clonazepam]: the “% Interference” value is reported as 0.70%. On the same count and under the same terms, the result for `CN1C(=O)CN=C(c2ccccc2)c2cc(Cl)ccc21` [Diazepam] reads 0.64%; that for `CC(C)Cc1ccc(C(C)C(=O)O)cc1` (stereo not drawn) [Ibuprofen], 2.30%; that for `O=C1NC(=O)C(c2ccccc2)(c2ccccc2)N1` [Phenytoin], 0.32%.

The test is the same for the next values; noted with them: 100.0 μg/mL drug added to human serum containing 20.0 μg/mL topiramate.
For the compound `CC(=O)Oc1ccccc1C(=O)O` [Acetylsalicyclic Acid], the “% Interference” value is given as 0.25%. The same measure, in the same setting: under `Cn1c(=O)c2c(ncn2C)n(C)c1=O` [Caffeine] stands 0.35%; under `NC(=O)N1c2ccccc2C=Cc2ccccc21` [Carbamazepine], −0.43%. For the compound `NS(=O)(=O)c1cc(C2(O)NC(=O)c3ccccc32)ccc1Cl` (stereo not drawn) [Chlorthalidone], the “% Interference” value was 0.16%. The same measure, in the same setting: the result for `NCC1(CC(=O)O)CCCCC1` [Gabapentin] reads −0.49%; that for `Nc1nnc(-c2cccc(Cl)c2Cl)c(N)n1` [Lamotrogine], −1.02%; that for `COCCc1ccc(OCC(O)CNC(C)C)cc1` (stereo not drawn) [Metoprolol], 0.35%. Still for that read-out and setting: the result for `CCC1(c2ccccc2)C(=O)NC(=O)NC1=O` [Phenobarbitol] reads 1.08%; that for `CCC1(c2ccccc2)C(=O)NCNC1=O` [Primidone], −1.83%; that for `COc1ccc(CCN(C)CCCC(C#N)(c2ccc(OC)c(OC)c2)C(C)C)cc1OC` (stereo not drawn) [Verapamil], 1.07%.

The same test, now with this note: 200.0 μg/mL drug added to human serum containing 20.0 μg/mL topiramate.
For the compound `CC[C@@H](C(N)=O)N1CCCC1=O` [Levetiracetam], the “% Interference” value was −0.45%. `CCCC(CCC)C(=O)O` [Valproic Acid]: the “% Interference” value came to 0.50%. On the same count and under the same terms, under `NS(=O)(=O)Cc1noc2ccccc12` [Zonisamide] stands 0.08%.

The test is the same for the next values; noted with them: 500.0 μg/mL drug added to human serum containing 20.0 μg/mL topiramate.
In the case of `CCC1(C)CC(=O)NC1=O` (stereo not drawn) [Ethosuxamide], the “% Interference” value is on record as −0.09%. Regarding `NC(=O)OCC(COC(N)=O)c1ccccc1` [Felbamate], the “% Interference” value is recorded as 0.20%.

Still in this test, the particulars now being: 750.0 μg/mL drug added to human serum containing 20.0 μg/mL topiramate.
Consider `O=C(O)c1ccccc1O` [Salicylic Acid], for which the “% Interference” value is −5.73%.

For the compound `CCCCNC(=O)NS(=O)(=O)c1ccc(C)cc1` [Tolbutamide], the “% Interference” value is reported as −0.08%.

Staying with this test, now noted: 2000.0 μg/mL drug added to human serum containing 20.0 μg/mL topiramate.
As to `Nc1ccc(S(N)(=O)=O)cc1` [Sulfanilamide], the “% Interference” value is reported as −0.16%.

The next test relates to antibodies raised with immunogens (10-KLH, 12-KLH, 12-L-KLH, 19-KLH, 22-KLH and 25-KLH). The test is described as follows: Enzyme-based assay format, reactivity of antibodies raised with the immunogens. Type of test: binding.
Details: not given
An excerpt: All the prepared haptens have utility for KLH and G6PDH bio-conjugation. immunogens (10-KLH, 12-KLH, 12-L-KLH, 19-KLH, 22-KLH and 25-KLH) were used to raise antibodies.
With `CC1(C)O[C@@H]2[C@@H](CO[C@@]3(CO)OC(C)(C)O[C@@H]23)O1` [diacetonefructose], the “reactivity of the antibodies” value is given as “good reactivity”.

The test system of a further test is antibody from rabbit #11341. As to the kind of experiment: Crossreactivity to topiramate metabolites in the homogeneous enzyme immunoassay (HITACHI 917). It counts as binding. As to conditions: metabolite 50.0 μg/mL, in the presence of 20 μg/mL topiramate. The method, then: % Crossreactivity=100×(“apparent concentration of measurand”/“concentration of crossreactant”)
as §1
The apparent topiramate concentration for the metabolite is the difference in concentration with metabolite minus the concentration without metabolite.
`CC1(C)O[C@H]2[C@@H]3O[C@](C)(CO)O[C@@H]3CO[C@@]2(COS(N)(=O)=O)O1` [9-OH-Topiramate, 9-hydroxytopiramate]: the “% Cross Reactivity” value was found to be 3.18%. As to `CC1(C)O[C@H]2[C@@H]3O[C@@](C)(CO)O[C@@H]3CO[C@@]2(COS(N)(=O)=O)O1` [10-OH-Topiramate, 10-hydroxytopiramate], the “% Cross Reactivity” value was 3.20%.
